Assay results reported in PMC5476196, “Uptake, biotransformation and elimination of selected pharmaceuticals in a freshwater invertebrate measured using liquid chromatography tandem mass spectrometry” (Chemosphere, 2017).
“And” between values parts separate entries of the source, which are not always exact repeats. Identical values can stand only once. Counter-ions that a name gives are not always drawn.

Assays:
[1] = test system: Gammarus pulex; assay: in vivo; details: for BCFss: steady-state BCF estimation, 48 h
Procedure: (§1) Individual adult organisms (n = 25), both male and female (>5 mg wet weight) were placed in Pyrex glass beakers. G. pulex were carefully transferred to beakers using blunt forceps to avoid any harm to the organisms before exposure. Each beaker contained 25 organisms in 200 mL of exposure media (AFW and test compound). […] All exposure media contained <0.001% of organic solvent (methanol). A total of 300 organisms were used per compound exposure and were sampled for n = 3 per time-point. […] These were subsequently analysed for background contamination. […] Each animal specimen was rinsed with ultra-pure water and then frozen at −20 °C.
(§2) Water samples collected from exposure experiments were filtered using Whatman filters (0.2 μM) and directly injected onto the LC-MS/MS for analysis. For G. pulex, A mass of 50 mg of lyophilised and ground material was extracted by glass bead pulverisation in 5 mL of acetonitrile and diluted with 100 mL of ammonium acetate buffer (10 mM) for loading onto Waters HLB solid phase extraction (SPE) cartridges (6 cc, 200 mg sorbent).
(§3) Briefly, separations were performed on an Agilent HP1100 LC system configured with a Waters SunFire reversed-phase C18 column (150 mm × 2.1 mm, 2.5 μM particle size). […] Detection was performed using a Waters Quattro triple quadrupole mass spectrometer with electrospray ionisation operated in positive and negative polarity switching mode. Quantification of analytes was performed using 3-point internal standard matrix-matched calibration using the peak area ratio of non-labelled analyte (precursor range: 50–300 ng g^−1, biotransformation product range: 50–150 ng g^−1) to the stable isotope labelled internal standard (SIL-IS) (100 ng g^−1).
(§4) Herein, the authors define BCFtotal as the summation of the BCF of both parent/precursor and biotransformation products (i.e. the total body burden). Whereas, BCFparent will be used to describe the BCF determined for the parent compound alone.

[2] = in vivo; details: both, Gammarus pulex, in vivo, G. pulex; for concentration at 6 h: 6h Mean; for concentration at 24 h: 24h Mean
Procedure: as §1, §2, §3, §4

[3] = for stability of aqueous pharmaceutical concentration: across the exposure period; for Concentration, 24 h: exposure media after 24 h of exposure with Day 1 solution; for Concentration, 24 h / Concentration, Day 1 (initial pharmaceutical concentration on day 1): n = 3; for Concentration, 48 h: exposure media after 24 h of exposure with Day 2 solution, n = 3 (propranolol n = 2); for Concentration, Day 2 (initial pharmaceutical concentration on day 2): n = 2; for Concentration, Day 1 (initial pharmaceutical concentration on day 1): nominal 1 μg L^−1 (propranolol 10 μg L^−1)
Procedure: as §1, §2

[4] = test system: Gammarus fossarum; details: ref Sordet et al., 2016; cited from earlier work
[5] = test system: Pimephales notatus and I. punctatus; design: method as in Garcia et al., 2012; details: depending on tissue; ref Garcia et al., 2012; cited from earlier work
[6] = test system: Mytilus galloprovincialis; details: ref Gomez et al., 2012; cited from earlier work
[7] = test system: G. pulex; details: ref Miller et al., 2016, cited from earlier work; for SeqBCF, Full Design: sequential BCF; for SeqBCF^a, Full Design: sequential estimation using minitab; for SimBCF, Full Design: simultaneous BCF
[8] = test system: Gammarus pulex; assay: Biotransformation products in G. pulex after exposure to propranolol, carbamazepine or diazepam (LC-MS/MS); details: for k2 of biotransformation product: depuration phase; for detection of biotransformation product in G. pulex at 96 h: after exposure to the precursor compound, end of depuration
Procedure: as §1, §3
A matrix effect and recovery experiment was performed for these additional analytes before exposures were performed (SI Table S5).

[9] = both, Gammarus pulex, in vivo, pH 8.19
[10] = pH 8.19, internal concentration at the end of the uptake phase, 48 h, exposure 1 μg L^−1 (propranolol 10 μg L^−1)
[11] = pH 8.19, Concentration, n=3, exposure 1 μg L^−1 (warfarin, propranolol 10 μg L^−1)
[12] = pH 8.19, Concentration, 48h Mean, n=3, exposure 1 μg L^−1 (warfarin, propranolol 10 μg L^−1)
[13] = k1 re-calculated over time intervals of the uptake phase
[14] = sequential, Levenberg-Marquardt algorithm, exposure 1 μg L^−1 (warfarin, propranolol 10 μg L^−1)
[15] = sequential, linear regression on elimination data, exposure 1 μg L^−1 (warfarin, propranolol 10 μg L^−1)
[16] = simultaneous parametrisation, exposure 1 μg L^−1 (warfarin, propranolol 10 μg L^−1)

## COCCc1ccc(OCC(O)CNC(C)C)cc1 (racemic) [Metoprolol, (±)-metoprolol (+)-tartrate salt]
[1]; [9]
  BCFparent, Sequential a: 39 L/kg
  BCFparent, Sequential b: 37 L/kg
  BCFparent, Simultaneous: 17 L/kg
  k1 (uptake rate constant), Simultaneous: 0.4413
  k1, Sequential a: 0.2788
  k1, Sequential b: 0.2855
  k2 (depuration rate constant), Simultaneous: 0.0259
  k2, Sequential a: 0.0071
  k2, Sequential b: 0.0078
[1]
  BCFss: 9
[2]; [10]
  concentration at 48 h: ≤ 51 ng/g
[3]
  stability of aqueous pharmaceutical concentration: remained stable
  Concentration, 24 h: 0.72 ng/mL
  Concentration, 48 h: 0.87 µg/L
[3]; exposure media
  Concentration, Day 2 (initial pharmaceutical concentration on day 2): 0.86 ng/mL
  Concentration, Day 1 (initial pharmaceutical concentration on day 1): 0.77 ng/mL

## NC(=O)N1c2ccccc2C=Cc2ccccc21 [Carbamazepine, carbamazepine]
[1]; [9]
  BCFparent from the average of k1 over the 48 h time interval: 26 L/kg
[2]; [11]
  concentration at 6 h: 8 ng/g
  concentration at 24 h: 11 ng/g
[2]; [12]
  concentration at 48 h: 14 ng/g
[2]; [10]
  concentration at 48 h: ≤ 51 ng/g
[4]
  BCF in Gammarus fossarum: 5 L/kg
[3]
  stability of aqueous pharmaceutical concentration: remained stable
  Concentration, 24 h: 1.01 ng/mL
  Concentration, 48 h: 1.07 µg/L
[3]; exposure media
  Concentration, Day 2 (initial pharmaceutical concentration on day 2): 1.08 ng/mL
  Concentration, Day 1 (initial pharmaceutical concentration on day 1): 1.12 ng/mL
[5]
  BCF in two species of fish (Pimephales notatus and I. punctatus): < 7 L/kg

## CN1C(=O)CN=C(c2ccccc2)c2cc(Cl)ccc21 [Diazepam, diazepam]
[1]; [13]
  BCFparent from the average of k1 over the 48 h time interval: 48 L/kg
[1]; [14]
  BCFparent, Sequential a: 58 L/kg
  k1, Sequential a: 2.6469
  k2, Sequential a: 0.046
[1]; [15]
  BCFparent, Sequential b: 53 L/kg
  k1, Sequential b: 3.0917
  k2, Sequential b: 0.0582
[1]; [16]
  BCFparent, Simultaneous: 41 L/kg
  k2 (depuration rate constant), Simultaneous: 0.2349
[1]
  BCFss: 45
[2]; [11]
  concentration at 6 h: 31 ng/g
  concentration at 24 h: 37 ng/g
[6]
  BCF in marine mussel Mytilus galloprovincialis: 51 L/kg
[3]
  Concentration, 24 h: 0.86 ng/mL
  Concentration, 48 h: 0.89 µg/L
[3]; exposure media
  Concentration, Day 2 (initial pharmaceutical concentration on day 2): 1.04 ng/mL
  Concentration, Day 1 (initial pharmaceutical concentration on day 1): 1.02 ng/mL

## O=C(O)Cc1ccccc1Nc1c(Cl)cccc1Cl [Diclofenac]
[7]
  SeqBCF, Full Design: 21
  SeqBCF^a, Full Design: 27
  SimBCF, Full Design: 14

## COc1ccc(CC(C)NCC(O)c2ccc(O)c(NC=O)c2)cc1 (centres unmarked) [Formoterol]
[7]
  SeqBCF, Full Design: 33
  SeqBCF^a, Full Design: 18
  SimBCF, Full Design: 14

## CN(C)CCCN1c2ccccc2CCc2ccccc21 [Imipramine]
[7]
  SeqBCF, Full Design: 4533
  SeqBCF^a, Full Design: 3811
  SimBCF, Full Design: 212

## CC(C)NCC(O)COc1cccc2ccccc12 (centres unmarked) [Propranolol, Propranolol hydrochloride]
[3]
  Concentration, 24 h: 8.92 ng/mL
  Concentration, 48 h: 6.41 μg L^−1 and 6.41 ^a μg L^−1
[3]; exposure media, after the first 24 h
  decline of aqueous concentration: 29%
[3]; exposure media
  Concentration, Day 2 (initial pharmaceutical concentration on day 2): 8.98 ng/mL
  Concentration, Day 1 (initial pharmaceutical concentration on day 1): 9.22 ng/mL

## CN1C(=O)C(O)N=C(c2ccccc2)c2cc(Cl)ccc21 (centres unmarked) [Temazepam, temazepam]
[8]; G. pulex, after exposure to the precursor compound (propranolol 10 μg L^−1, diazepam 1 μg L^−1)
  mean concentration of biotransformation product at 48 h (end of the uptake phase): 6 ± 3 ng g^−1 dw
[8]; G. pulex, diazepam exposure
  k2 of biotransformation product: 0.016 day⁻¹
[8]
  detection of biotransformation product in G. pulex at 96 h: not detectable
[1]; [13]
  BCFparent from the average of k1 over the 48 h time interval: 40 L/kg
[1]; [14]
  BCFparent, Sequential a: 41 L/kg
  k1, Sequential a: 2.8514
  k2, Sequential a: 0.0702
[1]; [15]
  BCFparent, Sequential b: 41 L/kg
  k1, Sequential b: 2.751
  k2, Sequential b: 0.0669
[1]; [16]
  BCFparent, Simultaneous: 37 L/kg
  k1 (uptake rate constant), Simultaneous: 4.3326
  k2 (depuration rate constant), Simultaneous: 0.1186
[1]
  BCFss: 38
[2]; [11]
  concentration at 6 h: 20 ng/g
  concentration at 24 h: 32 ng/g
[2]; [12]
  concentration at 48 h: 38 ng/g
[2]; [10]
  concentration at 48 h: ≤ 51 ng/g
[3]
  stability of aqueous pharmaceutical concentration: remained stable
  Concentration, 24 h: 0.85 ng/mL
  Concentration, 48 h: 1.03 µg/L
[3]; exposure media
  Concentration, Day 2 (initial pharmaceutical concentration on day 2): 1.17 ng/mL
  Concentration, Day 1 (initial pharmaceutical concentration on day 1): 0.96 ng/mL

## CC(C)(C)NCC(O)c1cc(O)cc(O)c1 (centres unmarked) [Terbutaline]
[7]
  SeqBCF, Full Design: 19
  SeqBCF^a, Full Design: 22
  SimBCF, Full Design: 12

## COc1cc(Cc2cnc(N)nc2N)cc(OC)c1OC [Trimethoprim]
[3]
  Concentration, 24 h: 1.01 ng/mL
  Concentration, 48 h: 0.97 µg/L
[3]; exposure media
  Concentration, Day 2 (initial pharmaceutical concentration on day 2): 0.99 ng/mL
  Concentration, Day 1 (initial pharmaceutical concentration on day 1): 1.09 ng/mL

## NC(=O)N1c2ccccc2C2OC2c2ccccc21 (centres unmarked) [carbamazepine-10,11-epoxide]
[8]
  detection of biotransformation product in G. pulex at 96 h: not detected
[8]; carbamazepine exposure, 24 h and 48 h
  detection of biotransformation product in G. pulex: detection
[8]; carbamazepine exposure, signals below signal to noise ratio of 10:1
  quantifiability of biotransformation product in G. pulex: not quantifiable

## O=C1CN=C(c2ccccc2)c2cc(Cl)ccc2N1 [nordiazepam]
[8]; G. pulex, diazepam exposure
  concentration of biotransformation product (higher than the parent compound): 94 ng g^−1 dw
  k2 of biotransformation product: 0.0194 day⁻¹
[8]; G. pulex, diazepam exposure, time not stated
  mean concentration of biotransformation product reached: 64 ± 27 ng g^−1 dw

## O=C1Nc2ccc(Cl)cc2C(c2ccccc2)=NC1O (centres unmarked) [oxazepam]
[8]; G. pulex, diazepam exposure
  reduction of mean internal concentration over the 48 h depuration period: 21 ng g^−1 dw
  k2 of biotransformation product: 0.009 day⁻¹
[4]
  BCF in Gammarus fossarum: 22 L/kg
